Data set [1] deals with MV4-11 (human biphenotypic B cell myelomonocytic leukemia). Briefly: MTT antiproliferative assay, 72 h exposure. The class given is cell-based. The source says:
(§1) Established in vitro, human cell lines MV4-11 (human biphenotypic B myelomonocytic leukemia), MCF-7 (breast cancer), LoVo (colon cancer), LoVo/DX (colon cancer drug resistant), and MCF-10A (normal breast epithelial) were used. The lines were obtained from the American Type Culture Collection (lines MV4-11, LoVo, LoVo/DX, MCF-10A; Rockville, MD, USA) or from the European Collection of Authenticated Cell Cultures (line MCF-7) and are being maintained at the Hirszfeld Institute of Immunology and Experimental Therapy PAS, Wroclaw, Poland.
(§2) MV4-11 cells were cultured in the RPMI 1640 medium (HIIET PAS, Poland) supplemented with 1.0 mM sodium pyruvate, 2 mM L-glutamine and 10% FBS (all from Sigma Aldrich, Steinheim, Germany), LoVo cells were cultured in the F-12K medium (Life Technologies, Carlsbad, CA, United States) supplemented with 10% FBS (GE Healthcare, Chicago, IL, USA), and LoVo/DX cells were cultured in the mixture of RPMI 1640+OptiMEM (1:1) medium (HIIET PAS) supplemented with 5% FBS (GE Healthcare, Chicago, IL, USA), 2 mM L-glutamine, 1.0 mM sodium pyruvate (all from Sigma Aldrich, Steinheim, Germany) and 0.1 µg/mL doxorubicin chloride (Accord).
(§3) Test solutions of the compounds tested (50 mM) were prepared by dissolving the substances in DMSO (Sigma Aldrich). Afterwards, the tested compounds were diluted in a culture medium to reach the final concentrations at the range of 1-80 μg/mL (250, 125, 25 and 5 μM).
(§4) Twenty-four hours prior to the addition of the tested compounds, the cells were plated in 96-well plates (Sarstedt, Germany) at a density of 1 × 10^4 or 0.75 × 10^4 (MCF-7) cells per well. The assay was performed after 72 h of exposure to varying concentrations of the tested agents. The in vitro cytotoxic effect of all agents was examined using the MTT (MV4-11) or SRB assay. The results were calculated as IC50 (inhibitory concentration 50%) the concentration of tested agent, which is cytotoxic for 50% of the cancer cells. Each compound in each concentration was tested in triplicate in a single experiment, which was repeated 3–4 times.
This technique was applied for cells growing in suspension culture. An assay was performed after 72 h exposure to varying concentrations of the tested agents. For the last 4 h of incubation, 20 µL of MTT solution was added to each well (MTT: 3-(4,5-dimethylthiazol-2-yl)-2,5-diphenyl tetrazolium bromide; stock solution: 5 mg/mL, Sigma Aldrich). When the incubation time was completed, 80 µL of the lysing mixture was added to each well (lysing mixture: 225 mL dimethylformamide, POCh, Gliwice, Poland, 67.5 g sodium dodecyl sulfate, Sigma Aldrich, and 275 mL of distilled water). After 24 h, when formazan crystals had been dissolved, the optical densities of the samples were read on Synergy H4 photometer (BioTek Instruments, USA) at 570 nm wavelength. The background optical density was measured in the wells filled with culture medium, without the cells.

Data set [2] has as its system MCF-7 (breast adenocarcinoma). Briefly: SRB antiproliferative assay, 72 h exposure. The class given is cell-based, human. Conditions: Homo sapiens, MCF7, 72 h, MCF-7, SRB, read-out: IC50 ± SD MCF-7.
Excerpt: as §1
(§5) MCF-7 cells were cultured in the Eagle’s medium (HIIET PAS, Poland) supplemented with 10% FBS, 8 µg/mL insulin, 2 mM L-glutamine and 1% MEM-non essential amino acid solution 100X (all from Sigma Aldrich, Steinheim, Germany). MCF-10A cells were cultured in the HAM’S F-12 with L-glutamine medium (Corning) supplemented with 10% Hors Serum (Gibco), 10 µg/mL insulin, 0.5 µg/mL hydrocortisone, 20 ng/mL EGFh and 0.05 mg/mL Cholera Toxin from Vibrio cholerae (all from Sigma Aldrich, Steinheim, Germany). All culture mediums were supplemented with 100 units/mL penicillin (Polfa Tarchomin S.A. Poland), and 100 µg/mL streptomycin (Sigma Aldrich). All cell lines were grown at 37 °C with 5% CO2 humidified atmosphere.
as §3, §4
(§6) This technique was applied for the cytotoxicity screening against cells growing in adherent culture. The details of this technique were described by Skehan et. al.. The cytotoxicity assay was performed after 72 h exposure of the cultured cells to varying concentrations of the tested agents. The cells attached to the plastic were fixed by gently layering cold 50% TCA (trichloroacetic acid, Sigma Aldrich) on the top of the culture medium in each well. The plates were incubated at 4 °C for 1 h and then washed five times with tap water. The cellular material fixed with TCA was stained with 0.1% sulforhodamine B (SRB, Sigma Aldrich) dissolved in 1% acetic acid (POCh) for 30 min. Unbound dye was removed by rinsing (4×) with 1% acetic acid. The protein-bound dye was extracted with 10 mM unbuffered Tris base (Sigma Aldrich) for determination of optical density (at 540 nm) on Synergy H4 photometer (BioTek Instruments). The background optical density was measured in the wells filled with culture medium, without the cells.

Data set [3] deals with MCF-10A (normal non-tumorigenic epithelial cell line derived from mammary gland). Briefly: SRB cytotoxicity assay, 72 h exposure. In kind it is cell-based, human. The conditions noted are these: Homo sapiens; MCF-10A normal cells, SRB, 72 h; read-out: IC50 ± SD MCF-10A.
Excerpt: as §1, §5, §3, §4, §6

The subject of data set [4] is LoVo (human colon adenocarcinoma, sensitive). Briefly: SRB antiproliferative assay, 72 h exposure. In kind it is cell-based. Conditions: Homo sapiens, read-out: IC50 ± SD LoVo.
Excerpt: as §1, §2, §3, §4, §6

Data set [5] concerns LoVo/DX (human colon adenocarcinoma, resistant to doxorubicin). Briefly: SRB antiproliferative assay, 72 h exposure; resistance index. In kind it is cell-based.
Excerpt: as §1, §2, §3, §4
The resistance indexes (RI) were calculated by dividing the IC50 values of the compounds tested against the cells of drug resistant cell LoVo/DX line by respective values obtained against the cells of drug sensitive LoVo line (Table 2). According to Harker et al., three categories of the cells could be distinguished: (a) the cells are drug-sensitive if the ratio approaches 0–2; (b) the cells are moderately drug-resistant if the ratio ranges from 2 to 10; (c) the cells are markedly drug-resistant if the ratio is higher than 10.
as §6

Each structure is given as a SMILES string. Several values for one entry are separate records, joined by “and”; a condition that tells them apart may be missing. Equal entries are not always repeated.

For the compound `COc1cccc(/C=N/NC(=O)c2c(C)nsc2Cl)c1` [Compound 7, 5-Chloro-N’-[(E)-(3-methoxyphenyl)methylidene]-3-methylisothiazole-4-carbohydrazide], the melting point lay in the range of 139 to 140 °C. Also, the IC50 in data set [1] (Homo sapiens, MV4-11, 72 h, MV4-11, MTT, 72 h, n.a. = no activity in a concentration of 1–80 μg/mL) is 22.4 µg/mL and 72.3 µM. Moreover, in data set [1] (fold higher than compound 8), the “antiproliferative activity relative to phenyl derivative 8” value is on record as 1.5–2 times. For the same compound, the IC50 in data set [2] is 17.8 µg/mL and 58 µM. Further, the IC50 in data set [3] is 56 µg/mL and 182 µM. Further, in data set [4], the IC50 was 27.8 µg/mL and 90.5 µM. In data set [5] (Homo sapiens, LoVo/DX, 72 h, LoVo/DX, SRB, 72 h, read-out: IC50 ± SD LoVoDX), the IC50 was 20 µg/mL and 65 µM. In data set [5] (IC50 against LoVo/DX divided by IC50 against LoVo), the “RI (resistance index)” value was determined as 0.72.
